{"source": "patent US8962673B2", "about": "“Use of melatonin for treating and/or preventing mucositis” (Universidad de Granada, priority 2011, dated 2015)", "key": {"[1]": {"test": "Melatonin levels in rat tongue mitochondria", "assay_type": "in vivo", "details": "irradiated rats; parenteral (i.p.) 45 mg a day", "text": "(§1) The animals used in experiments were rats weighing 280 g, and they were subjected to ionizing radiations under controlled conditions in the Experimental Radiology Unit at the Biomedical Research Center in the University of Granada. The animals were subjected to full exposure of 50 grays (Gy). The irradiation dose used each day was 10 Gy administered at 100.75 cGy/min, 210 kilovolts (kV) and 12 milliamperes (mA), and placing the animal 40 cm away from the radiation source.\n(§2) The different formulations were applied to the animals as follows. A topical application was applied in the oral cavity before irradiation, another one after, and successive applications were applied every 8 hours for 21 days. […]\n(§3) […]"}, "[2]": {"test_system": "glutathione reductase (GRd)", "test": "Activity and expression of glutathione reductase in rat tongue mitochondria", "assay_type": "in vivo", "details": "irradiated rats; i.p. 45 mg a day for 21 days", "description": "(§4) For topical administration in the oral cavity, the composition used was a hydrogel (gel) that comprised 1%, 3% or 5% melatonin (1, 3 or 5 grams of melatonin in 100 ml of the final volume of the composition, respectively) and in which 20% polyethylene and polypropylene copolymers were used as a gelling substance. Pluronic® F127 (poloxamer) was used as the polyethylene and polypropylene copolymers. 0.3% sodium benzoate was used as a preservative. 0.5% sweet orange essence was used. All the components used were acquired from FAGRON IBERICA, S.A.U., reference numbers: melatonin, 33457-27; Pluronic® F127, 33353-SP; sodium benzoate, 31360-12; orange essence, 30620-08. The chemical structure of melatonin is shown below: […]\nas §3"}, "[3]": {"test_system": "glutathione peroxidase (GPx)", "test": "Activity and expression of glutathione peroxidase in rat tongue mitochondria", "assay_type": "in vivo", "details": "irradiated rats", "description": "as §4, §3"}, "glutathione": {"test_system": "glutathione", "test": "Glutathione levels (GSH, GSSG, GSSG/GSH) in tongue mitochondria of irradiated rats", "assay_type": "in vivo, rat", "details": "i.p. 45 mg a day for 21 days, compared with 3% gel topical", "description": "as §4, §3"}, "[4]": {"test_system": "fibrosis and angiogenesis between the muscle fibers of the tongue", "test": "Histology of rat tongue (hematoxylin-eosin, Masson Goldner's trichrome)", "assay_type": "in vivo", "details": "irradiated rats treated with melatonin (both treatments: 3% gel topical and parenteral) versus irradiated animals", "text": "as §1, §2, §3"}, "mitochondria": {"test_system": "mitochondria", "test": "Electron microscopy of rat tongue mitochondria", "assay_type": "in vivo", "details": "irradiated rats; parenteral route", "text": "as §1, §2, §3"}, "[5]": {"test_system": "mucositis caused by radiotherapy", "test": "Macroscopic appearance of rat tongue / mucositis after irradiation", "assay_type": "in vivo", "details": "irradiated rats", "description": "For topical administration in the oral cavity, the composition used was a hydrogel (gel) that comprised 1%, 3% or 5% melatonin (1, 3 or 5 grams of melatonin in 100 ml of the final volume of the composition, respectively) and in which 20% polyethylene and polypropylene copolymers were used as a gelling substance. Pluronic® F127 (poloxamer) was used as the polyethylene and polypropylene copolymers. 0.3% sodium benzoate was used as a preservative. 0.5% sweet orange essence was used. All the components used were acquired from FAGRON IBERICA, S.A.U., reference numbers: melatonin, 33457-27; Pluronic® F127, 33353-SP; sodium benzoate, 31360-12; orange essence, 30620-08. The chemical structure of melatonin is shown below:\nas §1\nThe different formulations were applied to the animals as follows. A topical application was applied in the oral cavity before irradiation, another one after, and successive applications were applied every 8 hours for 21 days. […] The formulations used in the animals used in experiments were as follows: Pluronic F-127 gel with 1%, 3% or 5% melatonin (1, 3 or 5 grams of melatonin/100 ml gel, respectively), applied three times a day topically in the oral cavity at a volume of 500 μl/each time, giving a total of 1.5 ml/day. Topical application in the oral cavity means that the animals ingest the gel applied in the buccal cavity.\nThe experiments were also conducted by administering to the animals the same melatonin concentration as that used with the 3% w/v hydrogel, but by intraperitoneal route, to see if plasma melatonin could reduce mucositis or if it is necessary to apply said molecule by topical route. For the parenteral route, an isotonic solution that comprised 70% v/v (volume/volume) of isotonic saline solution and 30% v/v of propylene glycol, measured in relation to the total volume of the solution, was used. A daily dose of 45 mg of melatonin was injected for 21 days. The animals were sacrificed 21 days after starting irradiation, like the animals treated with melatonin gel applied by topical route in the oral cavity."}, "[6]": {"details": "in vivo; cited from earlier work"}, "[7]": {"test_system": "mitochondrial respiratory chain complexes CI, CIII, CIV and CV", "test": "Expression of mitochondrial respiratory chain complexes in rat tongue by Western blot", "assay_type": "in vivo", "details": "irradiated rats; i.p. 45 mg a day for 21 days", "text": "as §1, §2, §3"}}, "note": "“Also recorded” adds a separate entry of the source."}
{"smiles": "COc1ccc2[nH]cc(CCNC(C)=O)c2c1", "note": "[melatonin, N-acetyl-5-methoxytryptamine]", "values": [{"measurement": "melatonin levels in the tongue", "setting": "[1]", "result": "not restored"}, {"measurement": "activity and expression of GRd", "setting": "[2]", "result": "unable to restore the enzyme"}, {"measurement": "activity and expression of GPx", "setting": "[3]; 3% w/v gel topical in the oral cavity, 45 mg a day", "result": "partially counteract the effect of irradiation"}, {"measurement": "activity and expression of GPx", "setting": "[3]; i.p. 45 mg a day for 21 days", "result": "partially counteract the effect of irradiation"}, {"measurement": "GSSG/GSH ratio in tongue mitochondria", "setting": "glutathione", "result": "higher GSSG/GSH ratio"}, {"measurement": "restoring GSH and reducing GSSG in tongue mitochondria", "setting": "glutathione", "result": "lower efficacy"}, {"measurement": "fibrosis and angiogenesis between the muscle fibers of the tongue", "setting": "[4]", "result": "decrease in fibrosis and in angiogenesis"}, {"measurement": "mitochondrial damage by electron microscopy (broken mitochondria)", "setting": "mitochondria", "result": "broken mitochondria are observed"}, {"measurement": "minimum effective dose for treating mucositis, daily dose", "setting": "[5]; 3% gel applied three times a day, 500 μl in each application", "result": 45, "unit": "mg"}, {"measurement": "macroscopic tongue lesions (morphological appearance of the tongue)", "setting": "[5]; 3% w/v gel, topical application in the oral cavity", "result": "completely normalizes the morphological appearance of the tongue"}, {"measurement": "minimum effective dose for treating mucositis, melatonin concentration in the gel", "setting": "[5]; gel applied three times a day, 500 μl in each application", "result": 3, "unit": "%"}, {"measurement": "mucositis caused by radiotherapy (macroscopic tongue lesions)", "setting": "[5]; gel topical in the oral cavity, three times a day, 21 days", "result": "complete prevention of mucositis"}, {"measurement": "macroscopic tongue lesions / mucositis", "setting": "[5]; parenteral (i.p.) 45 mg a day for 21 days", "result": "unable to restore tongue lesions after irradiation; also recorded: no benefit whatsoever"}, {"measurement": "half-life", "setting": "[6]", "result": 30, "unit": "min"}, {"measurement": "expression of complex V or ATP synthase", "setting": "[7]", "result": "completely unable to restore the expression of complex V"}]}
